The structures appear in SMILES notation.

Here are results for two compounds from PMC3678025, “Structure of the Tubulin/FtsZ-Like Protein TubZ from Pseudomonas Bacteriophage ΦKZ” (Journal of Molecular Biology, 2013).

For one assay, the target named is T1, ΦKZ TubZ-His6 (Pseudomonas phage phiKZ, UniProt Q8SDC3).
T1 construct: gene PHIKZ039; used for crystallography
Briefly: X-ray crystal structure. Type of assay: binding. As to conditions: 2.0 Å monomer (GDP retained through purification, 150 mM Tris-Cl pH 8.0) and 1.7 Å protofilament (crystallised with GTPγS, pH 5.5); GTPase active site.

A further assay addresses T2, Wild-type ΦKZ TubZ (Pseudomonas phage phiKZ, UniProt Q8SDC3).
T2 construct: gene PHIKZ039; used for light scattering and electron microscopy
The assay is described as follows: […]° light scattering of polymerisation, electron cryo-microscopy. Type of assay: biochemical. To be noted: 2 μM protein, 20 or 200 μM GTP, 200 mM KCl, 5 mM MgCl2, pH 8.0, 25 °C; induces polymerisation.

T2 sequence (Q8SDC3 whole entry): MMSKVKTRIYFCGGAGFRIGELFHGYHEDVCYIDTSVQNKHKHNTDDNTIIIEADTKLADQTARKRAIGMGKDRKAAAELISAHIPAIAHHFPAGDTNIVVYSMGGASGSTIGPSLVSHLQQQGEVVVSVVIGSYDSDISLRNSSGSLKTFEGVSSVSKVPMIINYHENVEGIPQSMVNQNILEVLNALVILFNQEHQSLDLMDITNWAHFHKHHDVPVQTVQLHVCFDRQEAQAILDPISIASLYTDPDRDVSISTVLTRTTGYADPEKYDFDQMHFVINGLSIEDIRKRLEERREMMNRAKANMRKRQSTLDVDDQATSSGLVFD
T1 sequence (Q8SDC3 whole entry): as above

Take `Nc1nc2c(ncn2[C@@H]2O[C@H](COP(=O)(O)OP(=O)(O)O)[C@@H](O)[C@H]2O)c(=O)[nH]1` [GDP]: at ΦKZ TubZ-His6, the X-ray crystal structure entry is listed as “The GTPase active site within the subunit was occupied by GDP, which was retained”. Take `Nc1nc2c(ncn2[C@@H]2O[C@H](COP(=O)(O)OP(=O)(O)OP(=O)(O)O)[C@@H](O)[C@H]2O)c(=O)[nH]1` [GTP]: on Wild-type ΦKZ TubZ, the “90° light scattering of polymerisation, electron cryo-microscopy” value is reported as “ΦKZ TubZ filaments proved extremely dynamic in the presence of GTP”.
